{"source": "patent US10466233B2", "about": "“Genetically encoded probe for quantification of lactate and methods for quantifying metabolic rates and lactate transport” (CENTRO DE ESTUDIOS CIENTIFICOS DE VALDIVIA, priority 2012, dated 2019)", "key": {"MCT [1]": {"system": "MCT", "assay": "Intracellular lactate in HEK293 cells after MCT blockage", "format": "cell-based", "protocol": "(§1) Animals and Cell Cultures.\n(§2) Fluorescence Measurements.\nThe diagram in FIG. 14 illustrates how the intracellular concentration of lactate is determined by the dynamic balance between pyruvate production by glycolysis, pyruvate consumption by mitochondria and lactate exchange through MCTs. In cells that are exporting lactate, perturbation of the steady state by addition of a blocker of the MCT is expected to cause lactate accumulation. In cells that are net lactate importers, an MCT-blocker is expected to cause depletion in intracellular lactate. In both cases, the rate of change will be equal to the rate of lactate production or consumption. […] Phloretin is also known to inhibit GLUT glucose transporters, however this should not compromise the analysis of astrocytes, neurons, or the cell lines so far characterized, which maintain resting intracellular glucose at levels well above the Km of hexokinase (Bittner et al., 2010; Takanaga et al., 2008; Fehr et al., 2003). […]\nTo further validate methods 2 and 3, the blockers were applied sequentially and a mathematical model based on the kinetic model described in FIG. 14 was fitted to the data. The responses of intracellular lactate to transient inhibitions of the PT with 4-CIN (200 μM) and the MCTs with phloretin (50 μM) were measured in the same HEK293 cell in the presence of 25 mM glucose and no extracellular lactate. […]"}, "[2]": {"biological_target": "T1, mitochondrial pyruvate transporter (PT) (Homo sapiens, UniProt O95563+Q9Y5U8)", "T1 construct": "endogenous in cells; host or cells: HEK293 cells (ATCC) expressing the lactate sensor", "T1 sequence (Q9Y5U8 1-109)": "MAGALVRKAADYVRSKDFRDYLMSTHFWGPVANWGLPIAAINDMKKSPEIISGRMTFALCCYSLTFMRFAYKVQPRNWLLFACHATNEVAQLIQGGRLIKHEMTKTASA", "T1 sequence (O95563 1-127)": "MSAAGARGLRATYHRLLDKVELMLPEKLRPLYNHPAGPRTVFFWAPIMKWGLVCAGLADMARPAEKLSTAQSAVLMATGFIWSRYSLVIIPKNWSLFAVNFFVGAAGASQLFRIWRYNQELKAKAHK", "assay": "Intracellular lactate in HEK293 cells after inhibition of the mitochondrial pyruvate transporter", "format": "cell-based", "conditions": "concentration that does not affect MCT function", "excerpt": "as §1, §2\nBecause the reaction catalyzed by LDH is relatively fast, the cytosolic pools of lactate and pyruvate are tightly linked, and variations in pyruvate are faithfully mimicked by lactate. Accordingly, perturbation of the steady-state by addition of a blocker of the mitochondrial pyruvate transporter (PT) will cause intracellular lactate accumulation at a rate equal to the rate of pyruvate consumption by mitochondria.\nTo further validate methods 2 and 3, the blockers were applied sequentially and a mathematical model based on the kinetic model described in FIG. 14 was fitted to the data. The responses of intracellular lactate to transient inhibitions of the PT with 4-CIN (200 μM) and the MCTs with phloretin (50 μM) were measured in the same HEK293 cell in the presence of 25 mM glucose and no extracellular lactate. The straight lines represent the slopes of the lactate increases fitted by linear regression during the first minute (4-CIN) or during the whole exposure (phloretin). The red line represents the best fit of the kinetic model to the data, as described in Experimental Procedures, assuming full inhibition of the transporters. […] PT and lactate release rates respectively estimated from the initial slopes of lactate increase after transporter inhibition were over 90% of those estimated by modeling. […]"}, "[3]": {"system": "oxidative phosphorylation", "conditions": "astrocytes, 5 mM", "quoted_text": "(§5) Animals and Cell Cultures. Animals used were mixed F1 male mice (C57BL/6J×CBA/J), kept in an animal room under Specific Pathogen Free (SPF) conditions at a room temperature of 20±2° C., in a 12/12 h light/dark cycle with free access to food and water. […] Mixed cortical cultures of neuronal and glial cells (1-3 day-old neonates) were prepared as described (Loaiza et al., 2003). […] Cultures were transfected at 60% confluence using Lipofectamine 2000 (Gibco) or alternatively, exposed to 5×10^6 PFU of Ad lactate sensor of the present invention (Vector Biolab), and studied after 24-72 h.\n(§6) Fluorescence Measurements. […] Cells were imaged at room temperature (22-25° C.) in a 95% air/5% CO2-gassed solution of the following composition (in mM): 112 NaCl, 1.25 CaCl2, 1.25 MgSO4, 1-2 glucose, 10 HEPES, 24 NaHCO^3, pH 7.4, with 3 mM KCl (astrocytes) or 5 mM KCl (HEK and T98G) using an upright Olympus FV1000 Confocal Microscope equipped with a 20× water immersion objective (N.A. 1.0) and a 440 nm solid-state laser. Alternatively, cells were imaged with an Olympus IX70 or with an Olympus BX51 microscope equipped with a 40× oil-immersion objective (NA 1.3) or with a 20× water-immersion objective (NA 0.95). […]"}, "[4]": {"biological_target": "T2, lactate sensor Variant 7: mTFP - full length L1dR from E. coli, no linkers - Venus, SEQ ID NO 7 (Escherichia coli, UniProt P0ACL7)", "T2 construct": "His tag (inferred from the nickel-resin purification); made in house; host or cells: E. coli BL21 (DE3)", "assay": "Fluorescence ratio (FRET) dose-response of purified lactate nanosensor to lactate", "format": "binding", "conditions": "millimolar levels", "protocol": "Also surprising was the observation that the DNA-binding domain is important for the FRET change, and that the sensors with no linkers are more responsive (FIG. 4). […] It contains the full length L1dR from E. coli and no linkers. […] The affinity constant of L1dR for L-lactate is not known. […] This unique property of L1dR confers the lactate sensor the desirable ability of reporting across four orders of magnitude (from 1 μM to 10 mM), instead of the two orders afforded by one-site sensors.\n(§3) Protein Purification. Plasmid constructs were transformed into E. coli BL21 (DE3). A single colony was inoculated in 100 ml of LB medium with […] ampicillin (without IPTG) and shaken in the dark for 2-3 days. Cells were collected by centrifugation at 5000 rpm (4° C.) for 10 min and disrupted by sonication (Hielscher Ultrasound Technology) in 5 mL of Tris-HCl buffer pH 8.0. A cell-free extract was obtained by centrifugation at 10,000 rpm (4° C.) for 1 hour and filtering of the supernatant (0.45 μm). Proteins were purified using a Nickel resin (His Bin® from Novagen) as recommended by the manufacturer. Eluted proteins were quantified using the Biuret method and stored at −20° C. in 20% glycerol.\nas §2"}, "[5]": {"system": "monocarboxylate transporter (MCT) in astrocytes", "assay": "Astrocytic lactate uptake via MCT monitored with the lactate sensor", "format": "cell-based, mouse", "conditions": "1 mM lactate", "excerpt": "as §1, §2\n(§4) By controlling the exchange of lactate between cells and the interstitial space, MCTs are nodal points of tissue metabolism. MCTs catalyze the stoichiometric translocation of lactate and a proton and their activity can be measured with single-cell resolution by monitoring intracellular pH with a dye such as BCECF. However, 99.9% of protons are bound to proteins, phospholipids and other sites, and are exchanged through many transporters other than the MCT, which makes pH an imperfect proxy for lactate. To compare the performances of the lactate sensor of the present invention and BCECF, we chose astrocytes. When expressed in astrocytes, the lactate sensor of the present invention responded well to extracellular lactate, allowing real-time monitoring of lactate influx and efflux (FIG. 13). […] In contrast, exposure to extracellular lactate produced only a small change in intracellular pH as detected with BCECF (FIG. 15). […] Lactate may also be transported independently of protons through gap junctions (Rouach et al., 2008) and possibly through connexin hemichannels and pannexin channels, fluxes that are invisible to pH measurements and that may now be measured with the present invention."}, "MCT [6]": {"system": "MCT", "assay": "Initial rate of astrocytic lactate uptake measured with the lactate sensor", "format": "cell-based, mice", "conditions": "1 mM lactate, 50 μM blocker, astrocytes", "excerpt": "as §1, §2, §4"}, "MCT [7]": {"system": "MCT", "assay": "Intracellular lactate in astrocytes after MCT blockage", "format": "cell-based, mice", "conditions": "50 μM", "protocol": "as §1, §2\nThe diagram in FIG. 14 illustrates how the intracellular concentration of lactate is determined by the dynamic balance between pyruvate production by glycolysis, pyruvate consumption by mitochondria and lactate exchange through MCTs. In cells that are exporting lactate, perturbation of the steady state by addition of a blocker of the MCT is expected to cause lactate accumulation. In cells that are net lactate importers, an MCT-blocker is expected to cause depletion in intracellular lactate. In both cases, the rate of change will be equal to the rate of lactate production or consumption. […] Phloretin is also known to inhibit GLUT glucose transporters, however this should not compromise the analysis of astrocytes, neurons, or the cell lines so far characterized, which maintain resting intracellular glucose at levels well above the Km of hexokinase (Bittner et al., 2010; Takanaga et al., 2008; Fehr et al., 2003). In these cells, glucose consumption remains constant for several minutes in the presence of glucose transporter blockers like phloretin or cytochalasin B (Bittner et al., 2010). Thus, during the first few minutes of phloretin application, the rate of lactate accumulation is not diminished by lack of glucose supply."}, "[8]": {"system": "oxidative phosphorylation in astrocytes", "assay": "Rate of lactate production on inhibition of oxidative phosphorylation, measured with the lactate sensor", "conditions": "Mus musculus, Astrocyte, read-out: fold increase in the rate of lactate production", "quoted_text": "as §5, §6"}, "[9]": {"assay": "Fluorescence ratio (mTFP/Venus) response of purified lactate sensor to lactate in vitro", "format": "binding", "conditions": "comparison of sensor variants (FIG. 4)", "protocol": "as §3, §2"}}}
{"compound": "N#CC(=Cc1ccc(O)cc1)C(=O)O", "note": "[Variant 4-CIN, α-Cyano-4-hydroxycinnamate]", "values": [{"measurement": "block of MCTs", "setting": "MCT [1]; HEK293 cell, 200 μM, 25 mM glucose, no extracellular lactate", "value": "did not block MCTs to a significant extent"}, {"measurement": "effect on intracellular lactate", "setting": "[2]", "value": "led to an increase in intracellular lactate"}]}
{"compound": "[N-]=[N+]=[N-].[Na+]", "note": "[azide, sodium azide]", "values": [{"measurement": "increase in the rate of lactate production", "setting": "[3]", "value": "26±4", "unit": "fold"}]}
{"compound": "OC[C@H]1OC(O)[C@H](O)[C@@H](O)[C@@H]1O", "note": "(some centres unmarked) [glucose]", "values": [{"measurement": "change in FRET (specificity)", "setting": "[4]", "value": "only lactate induced a significant change in FRET"}]}
{"compound": "C[C@H](O)C(=O)O", "note": "[lactate]", "values": [{"measurement": "change in FRET (specificity)", "setting": "[4]", "value": "only lactate induced a significant change in FRET"}, {"measurement": "initial rate of astrocytic uptake of lactate", "setting": "[5]", "value": "1.6 ± 0.5", "unit": "µM/s"}]}
{"compound": "O=C(CCc1ccc(O)cc1)c1c(O)cc(O)cc1O", "note": "[phloretin]", "values": [{"measurement": "inhibition of initial rate of astrocytic lactate uptake", "setting": "MCT [6]", "value": "96±1", "unit": "%"}, {"measurement": "effect on intracellular lactate", "setting": "MCT [1]; HEK293 cells, 50 μM", "value": "caused the expected increase in intracellular lactate"}, {"measurement": "effect on intracellular lactate", "setting": "MCT [7]", "value": "caused the expected increase in intracellular lactate"}]}
{"compound": "[N-]=[N+]=[N-]", "note": "[sodium azide]", "values": [{"measurement": "fold induction at 5000 µM", "setting": "[8]", "value": "26 ± 4"}]}
{"compound": "Variant 7: Most responsive FRET lactate sensor: mTFP, full length L1dR from E. coli, no linkers, Venus; SEQ ID NO 7", "values": [{"measurement": "change in fluorescence ratio in response to lactate", "setting": "[9]", "value": "most responsive variant"}]}
